Assay results published in publication PMC6444592, “Citrullination of HP1γ chromodomain affects association with chromatin” (Epigenetics & Chromatin, 2019).

What was measured:
[1] = system: mESCs; assay: live-cell single-particle tracking, 13.5 ms, jump distance analysis; format: cell-based, mouse; conditions: 13.5 ms
Experimental: (§1) Parental E14 mouse embryonic stem cell (mESC) line was profiled by transcriptome analysis, qPCR and potency assays and was routinely tested for mycoplasma contamination and tested negative. Cells were cultured in DMEM (Gibco) supplemented with 15% standard FCS (Gibco), 0.1 mM non-essential amino acids (Gibco), 1% penicillin/streptomycin, 2 mM L-glutamine (Gibco), 1 mM sodium pyruvate (Gibco), 0.1 mM β-mercaptoethanol (Life Technologies) and 10^6 units/l mLIF (ESGRO, Millipore). E14 cells were stored in incubators at 37 °C in 7.5% CO2 (100% humidity) and maintained in 0.1% gelatin coated 10-cm culture dishes with 1:6 passaging every 2 days. Media was changed on a daily basis. E14 ESCs expressing mouse mEos3.2–HaloTag-HP1 fusion proteins were generated by transfecting appropriate pSB7 plasmids into E14 cells using Lipofectamine 2000 transfection reagent (Invitrogen), followed by selection in 600 µg/ml geneticin (Life Technologies). After 2 weeks of geneticin selection, cells were sorted using a Sony SH800S cell sorter for the expression of mEos3.2. Differentiation of ESCs was induced by LIF withdrawal. ESCs cultured in complete ES cell media (+ LIF) were trypsinised and washed twice in 1x PBS to remove residual LIF, seeded into ES cell media without LIF and incubated for 24, 48 or 72 h.
An IX73 Olympus inverted microscope was used with circularly polarised laser beams aligned and focused at the back aperture of an Olympus 1.40 NA 100 × oil objective (Universal Plan Super Apochromat, 100 × , NA 1.40, UPLSAPO100XO/1.4). Continuous wavelength diode laser light sources used include a 561-nm (Cobolt, Jive 200, 200 mW) and a 405-nm laser (Stradus, Toptica, 405–100, 100 mW). Oblique angle illumination was achieved by aligning the laser off axis such that the emergent beam at the sample interface was near-collimated and incident at an angle slightly less than the critical angle θc ~ 67° for a glass/water interface. This generated a ~ 50 μm diameter excitation footprint. The power of the collimated beams at the back aperture of the microscope was 10 kW/cm^2 and 10–100 W/cm^2 for the 561-nm and 405-nm laser beams, respectively. The lasers were reflected by dichroic mirrors (Semrock, Di01-R405/488/561/635). The fluorescence emission was collected through the same objective and then further filtered using a combination of long-pass and band-pass filters (BLP01-561R and FF01-587/35 for 561 nm excitation). The emission signal was projected onto an EMCCD (Photometrics, Evolve 512 Delta) with an electron multiplication gain of 250 ADU/photon operating in a frame transfer mode.
mESCs expressing mEos3.2–HaloTag-tagged HP1γ were passaged 2 days before imaging onto 35-mm glass bottom dishes No 1.0 (MatTek Corporation P35G-1.0-14-C Case) in phenol red-free serum and LIF conditions, if not stated otherwise. Just before single-particle tracking (SPT) imaging experiments, cells were labelled with 0.5 nM HaloTag–JF549 ligand for at least 15 min, followed by two washes in PBS and a 30-min incubation at 37 °C in media, before imaging the cells in fresh phenol red-free serum and LIF conditions. Cells were under-labelled to prevent overlap of fluorophores during SPT. Using 561 nm excitation, fluorescence images were collected as movies of 10,000 frames at 13.5 ms or 1000 to 5000 frames at 500 ms exposure. For live-cell tracking, data were collected for three biological replicates on separate dishes and the average values compared.
Live-cell 13.5-ms single-molecule traces were analysed using software that detects single-molecule trajectories from SPT movies. Briefly, the code detected puncta positions in each image frame using a brightness-weighted centroid after applying a band-pass filter to remove low-frequency background and high-frequency noise from the image data. To track the HP1 single molecules, only fluorescent puncta smaller than 3 pixels and with a signal to noise greater than 8 were analysed. […]

[2] = system: mESCs; assay: pluripotency marker mRNA (RT-PCR) and morphology of mESCs; format: cell-based, mouse; conditions: mESCs stably expressing fusion protein; +/− LIF; n = 2
Experimental: as §1, with “Differentiation of ESCs was induced by LIF withdrawal. ESCs cultured in complete ES cell media (+ LIF) were trypsinised and washed twice in 1x PBS to remove residual LIF, seeded into ES cell media without LIF and incubated for 24, 48 or 72 h.” left out
Cells were lysed using QIAzol® lysis reagent (Qiagen) and total RNA was isolated using RNeasy® Mini Kit with in column DNase treatment (Qiagen). […] Relative expression was calculated with the 2^−ΔΔCt method, normalising to the housekeeping gene β-actin. Data were analysed using GraphPad Prism 7 software. […]

HP1γWT: full-length mouse HP1γ wild type, as GST or mEos3.2–HaloTag fusion protein
Diffusion coefficient, Bound ([1]; +LIF, replicate i): 0.100 µm2s-1
Diffusion coefficient, Diffusing ([1]; +LIF, replicate i): 0.780 µm2s-1
Percentage, Bound ([1]; +LIF, replicate i): 36.7%
Percentage, Diffusing ([1]; +LIF, replicate i): 63.3%
Diffusion coefficient, Bound ([1]; +LIF, replicate ii): 0.100 µm2s-1
Diffusion coefficient, Diffusing ([1]; +LIF, replicate ii): 0.812 µm2s-1
Percentage, Bound ([1]; +LIF, replicate ii): 30%
Percentage, Diffusing ([1]; +LIF, replicate ii): 70%
Diffusion coefficient, Bound ([1]; +LIF, replicate iii): 0.100 µm2s-1
Diffusion coefficient, Diffusing ([1]; +LIF, replicate iii): 0.784 µm2s-1
Percentage, Bound ([1]; +LIF, replicate iii): 32.4%
Percentage, Diffusing ([1]; +LIF, replicate iii): 67.6%
Diffusion coefficient, Bound ([1]; +LIF, replicate iv): 0.097 µm2s-1
Diffusion coefficient, Diffusing ([1]; +LIF, replicate iv): 1.019 µm2s-1
Percentage, Bound ([1]; +LIF, replicate iv): 49%
Percentage, Diffusing ([1]; +LIF, replicate iv): 51%
Diffusion coefficient, Bound ([1]; +LIF, replicate v): 0.089 µm2s-1
Diffusion coefficient, Diffusing ([1]; +LIF, replicate v): 0.972 µm2s-1
Percentage, Bound ([1]; +LIF, replicate v): 38.8%
Percentage, Diffusing ([1]; +LIF, replicate v): 61.2%
Percentage of molecules, diffusing ([1]; +LIF, mESCs, mean ± SD (n = 5–9)): 63%
diffusion rate, effect of LIF withdrawal ([1]; −LIF 72 h versus +LIF): no significant effect
Diffusion coefficient, Bound ([1]; −LIF, replicate i): 0.082 µm2s-1
Diffusion coefficient, Diffusing ([1]; −LIF, replicate i): 0.733 µm2s-1
Percentage, Bound ([1]; −LIF, replicate i): 51.4%
Percentage, Diffusing ([1]; −LIF, replicate i): 48.6%
Diffusion coefficient, Bound ([1]; −LIF, replicate ii): 0.092 µm2s-1
Diffusion coefficient, Diffusing ([1]; −LIF, replicate ii): 0.912 µm2s-1
Percentage, Bound ([1]; −LIF, replicate ii): 51%
Percentage, Diffusing ([1]; −LIF, replicate ii): 49%
Diffusion coefficient, Bound ([1]; −LIF, replicate iii): 0.100 µm2s-1
Diffusion coefficient, Diffusing ([1]; −LIF, replicate iii): 1.037 µm2s-1
Percentage, Bound ([1]; −LIF, replicate iii): 31.3%
Percentage, Diffusing ([1]; −LIF, replicate iii): 68.7%
Diffusion coefficient, Bound ([1]; −LIF, replicate iv): 0.100 µm2s-1
Diffusion coefficient, Diffusing ([1]; −LIF, replicate iv): 1.007 µm2s-1
Percentage, Bound ([1]; −LIF, replicate iv): 30.9%
Percentage, Diffusing ([1]; −LIF, replicate iv): 69.1%
Diffusion coefficient, Bound ([1]; −LIF, replicate v): 0.100 µm2s-1
Diffusion coefficient, Diffusing ([1]; −LIF, replicate v): 0.930 µm2s-1
Percentage, Bound ([1]; −LIF, replicate v): 27.9%
Percentage, Diffusing ([1]; −LIF, replicate v): 72.1%
effect of exogenous expression on pluripotency marker mRNA and morphology [2]: no discernible effect on mESC differentiation
